Reference: patent US20020147353A1, “Novel flavonoids” (Vereniging christelijk wetenschappelijk anderwijs, priority 1999, published 2002)

Experiments:
[1] = TEAC model (Trolox equivalent antioxidant capacity); settings: concentration of Trolox equivalent to 1 mM test compound; mean ± S.D., n = 3-5
Description: A solution of 2,2′-azino-bis(3-ethylbenzthiazoline-6-sulfonic acid) (1.23 mg/mL) and azobisamidinepropane (3.96 mg/mL) in 50 mM phosphate buffer (pH=7.4) was heated at 70° C. for 20 min. The amount of ABTS radicals was measured by determination of the absorbance at 734 nm.
Stock solutions of the flavonoids were freshly prepared in nitrogen-purged DMSO and nanopure water (1:1) just before use. A calibration curve of Trolox ((+/−)-6-hydroxy-2,5,7,8-tetramethyl-chroman-2-carboxylic acid) was made in a concentration range from 0 to 20 μM. A mixture of 50 μL test compound and 950 μL ABTS^−+ solution was incubated at 37° C. for 5 min. Subsequently the absorbance at 734 nm was determined on a UV/VIS Spectrophotometer.
The antioxidant-induced decrease in absorbance is directly related to the antioxidant capacity of the compound (solution) being tested.
The Trolox equivalent antioxidant capacity (TEAC) is defined as the concentration (mM) of Trolox having an antioxidant capacity equivalent to 1 mM of the test compound.

[2] = test system: iron/ascorbate induced lipid peroxidation; test: Lipid peroxidation (LPO) model, heat-treated hepatic microsomes, TBA reactive substances; format: biochemical; settings: rat hepatic microsomes, reaction started with 10 uM FeSO4; mean ± s.e.m., n = 3-5
Description: Experiment 1: Lipid Peroxidation Model
Preparation of hepatic microsomes.
Male Wistar rats (200-220 g) obtained from Harlan Nederland B.V. (Horst, The Netherlands) were sacrificed by decapitation. Livers were removed and homogenized in ice-cold phosphate buffer (50 mM+0.1 mM EDTA, pH=7.4, 1:2 w/v). The homogenate was centrifuged at 10 000× g (20 min at 4° C.). Subsequently, the supernatant was centrifuged at 100 000× g for 60 min (4° C.). The pellet was resuspended in phosphate buffer and centrifuged again at 100 000× g (60 min, 4° C.). Finally the microsomal pellet was resuspended in phosphate buffer (2 g liver/ml) and 1 mL aliquots were stored at −80° C.
Microsomes were thawed and resuspended in ice-cold Tris-HCl buffer (50 mM, pH=7.4 at 37° C.) and washed by centrifugation. The pellet was resuspended in 2 mL 50 mM Tris-HCl buffer and heated to 100° C. for at least 2 min to remove all enzymatic factors just before resuspending and diluting it in ice-cold Tris buffer to 1.5 mg/mL.
Stock solutions of the flavonoids were freshly prepared in nitrogen-purged DMSO and nanopure water (1:1) just before use. The reaction was started by adding 10 uM freshly prepared FeSO4 in nitrogen-purged nanopure water. LPO was assayed by measuring thiobarbituric acid (TBA) reactive substances. At t=0, 5, 10, 15, 30, 45 and 60 min an 0.3 mL aliquot of the incubation was mixed with 2 mL of an ice-cold TBA-trichloroacetic acid-HCl-butylhydroxytoluene (BHT) solution to stop the reaction. After heating and centrifugation the absorbance at 535 vs 600 nm was determined. The TBA-trichloroacetic acid-HCl-butylhydroxytoluene solution was prepared by dissolving 41.6 mg TBA/10 ml trichloroacetic acid (16.8% w/v in 0.125 N HCl). To 10 ml TBA-trichloroacetic acid-HCl 1 ml BHT (1.5 mg/ml ethanol) was added.
The IC50 was determined by measuring the % LPO inhibition at several concentrations and interpolating the 50% inhibition point.

[3] = test system: isolated mouse left atrium; test: Isolated mouse left atrium model: protection against doxorubicin-induced negative inotropy; parameters: key: NP: No protection; settings: 250 μM flavonoid with 35 μM doxorubicin, electrically paced mouse left atrium
Description: Experiment 3: Isolated Mouse Left Atrium Model
In order to determine the cardioprotective properties of the compounds in vitro, the protection against doxorubicin-induced negative inotropy was studied, using the isolated mouse left atrium model.
The example compounds were tested for their protective effect on the negative inotropic action of doxorubicin on the isolated mouse left atrium. The testing model has been described earlier (de Jong et al.Ress Comm Chem Pathol Pharmacol 68, 275-289 (1990). In short, left atria were isolated from male Balb/c mice (18-22 g) and stimulated with square wave pulses of 3 ms duration at a frequency of 4 Hz. Incubation with […] doxorubicin causes a decrease in inotropy of 50% (after 1 h). Atria were incubated with 35 μM doxorubicin and 250 μM flavonoid. Inotropy was measured and expressed as % basal contractile force relative to t=0.

OVCAR-3 cells [4] = test: Antitumor activity of flavonoids, SRB growth inhibition assay; format: cell-based; settings: 72 h
Description: Experiment 6: Antitumor Activity of Flavonoids
Next to the use of flavonoids as medicaments in free radical mediated diseases, the presence of anti-tumor activity has been reported. Quercetin is the best known example (Molnar et al. Neoplasma, 28: 11-17 (1981)). Because of the possible use of these compounds in chemotherapy, it was checked whether the compounds affected cell growth.
On day 0 cultured OVCAR-3 cells were plated at a density of 5000 cells/well. After 24 h (day 1) the example compounds were added and after incubation of 72 h at 37° C. (day 4), growth inhibitory effects were evaluated with the standard SRB (sulforhodamine B) assay (Skehan et al. J. Natl. Cancer Inst., 82: 1107-1112 (1990)).

A2780 cells = test: Interference with antitumor activity of doxorubicin, MTT assay; format: cell-based; settings: Homo sapiens, A2780, 96 h, read-out: Dox IC50
Description: (§1) Experiment 5: Interference with the Antitumor Activity of Doxorubicin Because of the possible use of these compounds as adjuvants in the chemotherapy, it was checked whether the compounds influenced the negative effect of doxorubicin on cell growth. […] This observation further underlined the use of these compounds as adjuvant therapy in the protection of the side effects of cytostatics. On day 0 cultured OVCAR-3, MCF-7 and A2780 cells were plated at a density of 5000 cells/well for OCAR-3 and MCF-7 and 3000 cells/well for A2780 cells. […] After incubation of 96 h at 37° C. (day 5), growth inhibitory effects were evaluated using the standard MTT assay.

MCF-7 cells = test: as above; format: cell-based; settings: Homo sapiens, MCF7, MCF-7, 96 h, read-out: Dox IC50
Description: as §1

OVCAR-3 cells [5] = test: as above; format: cell-based; settings: Homo sapiens, OVCAR-3, 96 h, read-out: Dox IC50
Description: as §1

O=C(O)COc1c(-c2ccc(O)c(O)c2)oc2ccccc2c1=O [Compound 9d, 3′4′-dihydroxy-3-(2-ethoxycarboxylic acid)flavone]
TEAC [1]: 7.6 ± 0.6 mM | IC50 [2]: 6.5 ± 1 µM | Atrium protection (250 μM) [3]: NP

O=c1cc(-c2ccc(O)c(O)c2)oc2cc(O)ccc12 [Compound 8a, 3′,4′,7-trihydroxyflavone]
TEAC [1]: 4.3 ± 0.2 mM | IC50 [2]: 11 ± 1.3 µM

O=c1c(O)c(-c2ccc(O)cc2)oc2cc(O)cc(O)c12 [Kaempferol, reference compound]
IC50 [2]: 6 µM

O=c1cc(-c2ccc(O)c(O)c2)oc2cc(OCCO)ccc12 [Compound 8c, 3′,4′-dihydroxy-7-hydroxyethoxyflavone]
TEAC [1]: 4.3 ± 0.7 mM | IC50 [2]: 16.4 ± 1.7 µM

C[C@@H]1O[C@@H](OC[C@H]2O[C@@H](Oc3c(-c4ccc(O)c(O)c4)oc4ccccc4c3=O)[C@H](O)[C@@H](O)[C@@H]2O)[C@H](O)[C@H](O)[C@H]1O [Compound 9j, 3′,4′-dihydroxy-3-rutinoseflavone]
TEAC [1]: 4.3 ± 0.3 mM | IC50 [2]: 15.7 ± 4.8 µM | Atrium protection (250 μM) [3]: NP

O=c1c(O)c(-c2ccc(O)c(O)c2)oc2cc(O)cc(O)c12 [Quercetin, reference compound]
IC50 [2]: 9 µM | IC50 (OVCAR-3 cells [4]; Homo sapiens): 126 ± 50.5 µM

COc1cccc2c1C(=O)c1c(O)c3c(c(O)c1C2=O)C[C@@](O)(C(=O)CO)C[C@@H]3O[C@H]1C[C@H](N)[C@H](O)[C@H](C)O1 [Dox, doxorubicin, reference compound]
IC50 (A2780 cells): 0.0038 µM | IC50 (MCF-7 cells): 0.004 µM | IC50 (OVCAR-3 cells [5]): 0.0065 µM

C[C@@H]1O[C@@H](OC[C@H]2O[C@@H](Oc3c(-c4ccc(O)c(O)c4)oc4cc(O)cc(O)c4c3=O)[C@H](O)[C@@H](O)[C@@H]2O)[C@H](O)[C@H](O)[C@H]1O [Rutin, reference compound]
IC50 [2]: 10 µM

COc1c(-c2ccc(O)c(O)c2)oc2cc(O)ccc2c1=O [Compound 10b, 3-methoxy-7,3′,4′-trihydroxyflavone]
TEAC [1]: 5.9 ± 0.7 mM | IC50 [2]: 1.6 ± 0.7 µM | Atrium protection (250 μM) [3]: NP | IC50 (OVCAR-3 cells [4]; Homo sapiens): 15.8 ± 1.3 µM

COc1ccc2c(=O)cc(-c3ccc(O)c(O)c3)oc2c1 [Compound 8b, 3′,4′-dihydroxy-7-methoxyflavone]
TEAC [1]: 3.3 ± 0.2 mM | IC50 [2]: 2.5 ± 0.8 µM | melting point: > 240 °C

O=c1cc(-c2ccc(O)c(O)c2)oc2cc(O)cc(O)c12 [Lutcolin, reference compound]
IC50 [2]: 17 µM

O=c1c(OCCO)c(-c2ccc(O)c(O)c2)oc2cc(O)ccc12 [Compound 10c, 3-hydroxyethoxy-7,3′,4′-trihydroxyflavone]
TEAC [1]: 3.4 ± 0.2 mM | IC50 [2]: 21.7 ± 6.1 µM | Atrium protection (250 μM) [3]: 13%

C[N+](C)(C)CCCOc1c(-c2ccc(O)c(O)c2)oc2ccccc2c1=O [Compound 9f, 3′4′-dihydroxy-3-(3-trimethylaminopropoxy)flavone]
TEAC [1]: 4.2 ± 0.2 mM | IC50 [2]: 1.2 ± 0.3 µM | Atrium protection (250 μM) [3]: NP

C[C@@H]1O[C@@H](OC[C@H]2O[C@@H](Oc3c(-c4ccc(O)c(O)c4)oc4cc(OCCO)cc(O)c4c3=O)[C@H](O)[C@@H](O)[C@@H]2O)[C@H](O)[C@H](O)[C@H]1O [monoHER, 7-monohydroxyethylrutoside, reference compound]
TEAC [1]: 3.0 ± 0.2 mM | IC50 [2]: 12.7 ± 3.7 µM | Atrium protection (250 μM) [3]: 52%

O=c1c(O)c(-c2ccccc2)oc2cc(O)cc(O)c12 [Galangin, reference compound]
IC50 [2]: 6 µM

Fisetin [reference compound]
IC50 [2]: 16 µM

O=c1c(OCCO)c(-c2ccc(O)c(O)c2)oc2ccccc12 [Compound 9c, 3′,4′-dihydroxy-3-hydroxyethoxyflavone]
TEAC [1]: 4.4 ± 0.4 mM | IC50 [2]: 0.6 ± 0.1 µM | Atrium protection (250 μM) [3]: NP | IC50 (OVCAR-3 cells [4]; Homo sapiens): 44.2 ± 20.1 µM

CN(C)CCCOc1c(-c2ccc(O)c(O)c2)oc2ccccc2c1=O [Compound 9e, 3′,4′-dihydroxy-3-(3-dimethylaminopropoxy)flavone]
TEAC [1]: 3.4 ± 0.4 mM | IC50 [2]: 1 ± 0.1 µM | Atrium protection (250 μM) [3]: NP

C[N+](C)(C)CCCCCCCCOc1c(-c2ccc(O)c(O)c2)oc2ccccc2c1=O [Compound 9h, 3′4′-dihydroxy-3-(8-trimethylaminooctyloxy)flavone]
TEAC [1]: 3.3 ± 0.6 mM | IC50 [2]: 1 ± 0.3 µM | Atrium protection (250 μM) [3]: NP

COc1c(-c2ccc(O)c(O)c2)oc2ccccc2c1=O [Compound 9b, 3′4′-dihydroxy-3-methoxyflavone]
TEAC [1]: 4.4 ± 0.3 mM | IC50 [2]: 1.3 ± 0.7 µM | Atrium protection (250 μM) [3]: NP | IC50 (OVCAR-3 cells [4]): 2.2 ± 0.4 µM

C[N+](C)(C)CCCOc1ccc2c(=O)cc(-c3ccc(O)c(O)c3)oc2c1 [Compound 8d, 3′4′-dihydroxy-7-(3-trimethylaminopropoxy)flavone]
TEAC [1]: 1.9 ± 0.3 mM | IC50 [2]: 37.3 ± 2.4 µM

C[N+](C)(C)CCCc1c(-c2ccc(O)c(O)c2)oc2cc(O)ccc2c1=O.[Cl-] [Compound 10d, 3-(7,3′,4′-trihydroxyflavon-3-yl)-propyltrimethylammoniumchloride]
TEAC [1]: 5.1 ± 0.3 mM | IC50 [2]: 3.8 ± 0.1 µM | Atrium protection (250 μM) [3]: 33%

O=c1c(O)c(-c2cc(O)c(O)c(O)c2)oc2cc(O)cc(O)c12 [Myricetin, reference compound]
IC50 [2]: 10 µM

CN(C)CCCOc1ccc2c(=O)cc(-c3ccc(O)c(O)c3)oc2c1 [Compound 8e, 3′,4′-dihydroxy-7-(3-dimethylaminopropoxy)flavone]
TEAC [1]: 2.9 ± 0.4 mM | IC50 [2]: 8.1 ± 1.1 µM

O=c1c(O)c(-c2ccc(O)c(O)c2)oc2ccccc12 [Compound 9a, 3′3,3′,4′-trihydroxyflavone]
TEAC [1]: 4.5 ± 0.5 mM | IC50 [2]: 1.8 ± 1 µM | Atrium protection (250 μM) [3]: NP^1 | IC50 (OVCAR-3 cells [4]): 21 ± 2.4 µM

C[N+](C)(C)CCCCCCOc1c(-c2ccc(O)c(O)c2)oc2ccccc2c1=O [Compound 9g, 3′4′-dihydroxy-3-(6-trimethylaminohexyloxy)flavone]
TEAC [1]: 4.3 ± 0.6 mM | IC50 [2]: 1.4 ± 0.3 µM | Atrium protection (250 μM) [3]: NP
